In ChEMBL document CHEMBL5523702, “Synthesis and structure-activity optimization of azepane-containing derivatives as PTPN2/PTPN1 inhibitors” (Eur J Med Chem, 2024):
Values after ≈ are worked out from the molar mass of the structure shown.

Assays:
[1] = Inhibition of PTPN2 in IFN-gamma induced mouse B16-F10 cells; format: cell-based
[2] = biological target: T1, Tyrosine-protein phosphatase non-receptor type 2 (Homo sapiens, UniProt P17706); assay: Inhibition of human PTPN2 using DiFMUP as substrate by fluorescence based phosphatase assay
T1 sequence (P17706 whole entry): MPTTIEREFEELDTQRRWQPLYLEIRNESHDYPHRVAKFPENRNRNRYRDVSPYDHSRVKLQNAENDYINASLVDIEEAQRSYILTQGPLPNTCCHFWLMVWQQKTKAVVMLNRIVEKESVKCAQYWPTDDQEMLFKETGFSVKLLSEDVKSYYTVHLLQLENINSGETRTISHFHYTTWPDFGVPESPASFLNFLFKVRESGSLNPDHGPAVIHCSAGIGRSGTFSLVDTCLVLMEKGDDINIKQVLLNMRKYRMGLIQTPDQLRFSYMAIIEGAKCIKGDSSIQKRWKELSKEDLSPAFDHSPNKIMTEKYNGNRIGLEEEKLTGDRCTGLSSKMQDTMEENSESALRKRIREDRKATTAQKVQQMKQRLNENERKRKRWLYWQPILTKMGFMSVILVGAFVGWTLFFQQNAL

[3] = Half life in mouse at 10 mg/kg, po; format: ADME, organism-based; conditions: in vivo
[4] = AUC (0 to t) in mouse at 10 mg/kg, po; format: ADME, organism-based; conditions: in vivo
[5] = Cmax in mouse at 10 mg/kg, po; format: ADME, organism-based; conditions: in vivo
[6] = Half life in mouse at 50 mg/kg, po; format: ADME, organism-based; conditions: in vivo
[7] = Cmax in mouse at 50 mg/kg, po; format: ADME, organism-based; conditions: in vivo
[8] = Plasma protein binding in human assessed as unbound fraction; format: ADME, cell-free
[9] = Kinetic solubility of the compound at pH 7.4; conditions: buffer
[10] = Efflux ratio of apparent permeability in human Caco-2 cells across basolateral to apical side over apical to basolateral side
[11] = Volume of distribution at steady state in rat at 1 mg/kg, iv; format: ADME, organism-based; conditions: in vivo, read-out: Vdss
[12] = Clearance in rat assessed as liver blood flow at 1 mg/kg, iv; format: ADME, organism-based; conditions: in vivo
[13] = Half life in mouse at 1 mg/kg, iv; format: ADME, organism-based; conditions: in vivo
[14] = Oral bioavailability in dog at 2 mg/kg; format: ADME, organism-based, Canis lupus familiaris; conditions: in vivo
[15] = AUC (0 to t) in rat at 10 mg/kg, po; format: ADME, organism-based; conditions: in vivo
[16] = Clearance in mouse assessed as liver blood flow at 1 mg/kg, iv; format: ADME, organism-based; conditions: in vivo
[17] = Plasma protein binding in rat assessed as unbound fraction; format: ADME, cell-free
[18] = Cmax in dog at 2 mg/kg, po; format: ADME, organism-based, Canis lupus familiaris; conditions: in vivo
[19] = Cmax in rat at 10 mg/kg, po; format: ADME, organism-based; conditions: in vivo
[20] = Apparent permeability of compound in human Caco-2 cells across apical to basolateral side
[21] = Cmax in mouse at 1 mg/kg, iv; format: ADME, organism-based; conditions: in vivo
[22] = Oral bioavailability in mouse at 10 mg/kg; format: ADME, organism-based; conditions: in vivo
[23] = Volume of distribution at steady state in mouse at 1 mg/kg, iv; format: ADME, organism-based; conditions: in vivo, read-out: Vdss
[24] = AUC (0 to t) in dog at 2 mg/kg, po; format: ADME, organism-based, Canis lupus familiaris; conditions: in vivo
[25] = Oral bioavailability in rat at 10 mg/kg; format: ADME, organism-based; conditions: in vivo
[26] = biological target: T2, Tyrosine-protein phosphatase non-receptor type 1 (Homo sapiens, UniProt P18031); assay: Inhibition of human PTP1B
T2 sequence (P18031 whole entry): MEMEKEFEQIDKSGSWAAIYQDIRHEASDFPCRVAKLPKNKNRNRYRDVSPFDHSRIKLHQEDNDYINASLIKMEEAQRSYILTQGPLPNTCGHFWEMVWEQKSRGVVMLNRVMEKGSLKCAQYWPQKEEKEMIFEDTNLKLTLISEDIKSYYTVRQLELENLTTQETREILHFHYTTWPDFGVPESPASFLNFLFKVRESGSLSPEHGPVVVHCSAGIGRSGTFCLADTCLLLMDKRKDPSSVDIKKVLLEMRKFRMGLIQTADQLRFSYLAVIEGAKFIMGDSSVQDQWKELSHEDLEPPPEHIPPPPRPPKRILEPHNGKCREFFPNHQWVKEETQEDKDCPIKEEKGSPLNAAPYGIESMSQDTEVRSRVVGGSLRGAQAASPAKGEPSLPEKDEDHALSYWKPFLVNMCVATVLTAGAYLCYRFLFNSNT

[27] = Half life in dog at 2 mg/kg, po; format: ADME, organism-based, Canis lupus familiaris; conditions: in vivo
[28] = Solubility of compound in FeSSIF at pH 7.4
[29] = Apparent permeability of compound in human Caco-2 cells across basolateral to apical side
[30] = Solubility of compound in FaSSIF at pH 7.4
[31] = Clearance in dog assessed as liver blood flow at 1 mg/kg, iv; format: ADME, organism-based, Canis lupus familiaris; conditions: in vivo
[32] = Oral bioavailability in mouse at 50 mg/kg; format: ADME, organism-based; conditions: in vivo
[33] = Volume of distribution at steady state in dog at 1 mg/kg, iv; format: ADME, organism-based, Canis lupus familiaris; conditions: in vivo, read-out: Vdss
[34] = Plasma protein binding in mouse assessed as unbound fraction; format: ADME, cell-free
[35] = AUC (0 to t) in mouse at 1 mg/kg, iv; format: ADME, organism-based; conditions: in vivo
[36] = AUC (0 to t) in mouse at 50 mg/kg, po; format: ADME, organism-based; conditions: in vivo
[37] = biological target: T1, Tyrosine-protein phosphatase non-receptor type 2; assay: Binding affinity to human PTPN2 assessed as dissociation constant measured upto 300 secs by SPR analysis
[38] = Half life in rat at 10 mg/kg, po; format: ADME, organism-based; conditions: in vivo
MC-38 = assay: Antitumor activity in mouse MC38 cells xenografted in C57BL/6J mouse model assessed as tumor growth inhibition at 30 mg/kg, po BID administered for 19 days relative to control; format: functional; conditions: MC-38, 456 h, time 19 day, read-out: TGI
[39] = Toxicity in C57BL/6J mouse assessed as effect on body weight at 30 mg/kg, po BID measured after 19 days; format: organism-based; conditions: in vivo, 456 h, time 19 day

SMILES: O=C1CN(c2c(O)cc3c(c2F)CCNCC3)S(=O)(=O)N1
- IC50 ([1]; Mus musculus, B16-F10): 350 nM
- IC50 [2]: 19.7 nM

SMILES: CC1Cc2c(cc(O)c(N3CC(=O)NS3(=O)=O)c2F)CCN1 (racemic)
- half-life [3]: 75 min
- AUC(0-t) [4]: 1360 ng·h/mL
- Cmax [5]: 392 ng/mL

SMILES: CCC1Cc2c(cc(O)c(N3CC(=O)NS3(=O)=O)c2F)CCN1C (racemic)
- IC50 ([1]; Mus musculus, B16-F10): 17700 nM
- IC50 [2]: 75.5 nM

SMILES: O=C1CN(c2c(O)cc3c(c2F)CCN(CCC2CC2)CC3)S(=O)(=O)N1
- half-life [3]: 278 min
- AUC(0-t) [4]: 1320 ng·h/mL
- IC50 ([1]; Mus musculus, B16-F10): 117 nM
- IC50 [2]: 4.3 nM
- Cmax [5]: 328 ng/mL

SMILES: CC(C)CCN[C@@H]1CCc2cc(O)c(N3CC(=O)NS3(=O)=O)c(F)c2C1 [OSUNPROTAFIB]
- half-life [6]: 292 min
- Cmax [7]: 278 ng/mL
- fraction unbound [8]: 0.585
- solubility kinetic [9]: 204 µM (≈ 78.6 µg/mL)
- efflux ratio [10]: 0.065
- Vd [11]: 0.33 L/kg
- LBF [12]: 24.9%
- half-life [13]: 67.8 min
- bioavailability [14]: 6%
- AUC(0-t) [15]: 173 ng·h/mL
- LBF [16]: 22.1%
- fraction unbound [17]: 0.896
- Cmax [18]: 67 ng/mL
- Cmax [19]: 38 ng/mL
- Papp A→B [20]: 1.43 ×10⁻⁶ cm/s
- Cmax [21]: 1860 ng/mL
- bioavailability [22]: 11%
- half-life [3]: 253 min
- Vd [23]: 0.68 L/kg
- AUC(0-t) [24]: 319 ng·h/mL
- bioavailability [25]: 1.4%
- IC50 [26]: 0.69 nM
- half-life [27]: 205 min
- solubility [28]: 223 µM (≈ 86 µg/mL)
- AUC(0-t) [4]: 903 ng·h/mL
- IC50 ([1]; Mus musculus, B16-F10): 44 nM
- Papp B→A [29]: 0.093 ×10⁻⁶ cm/s
- solubility [30]: 206 µM (≈ 79.4 µg/mL)
- IC50 [2]: 2.2 nM
- LBF [31]: 20.9%
- bioavailability [32]: 9%
- Vd [33]: 0.31 L/kg
- fraction unbound [34]: 0.978
- AUC(0-t) [35]: 851 ng·h/mL
- AUC(0-t) [36]: 3820 ng·h/mL
- Cmax [5]: 78 ng/mL

SMILES: CC1Cc2c(cc(O)c(N3CC(=O)NS3(=O)=O)c2F)CCN1CC1CC1 (racemic)
- IC50 ([1]; Mus musculus, B16-F10): 1030 nM
- IC50 [2]: 28.1 nM

SMILES: O=C1CN(c2c(O)cc3c(c2F)CCN(CC(F)F)CC3)S(=O)(=O)N1
- IC50 ([1]; Mus musculus, B16-F10): 5330 nM
- IC50 [2]: 100 nM

SMILES: CCN1CCc2cc(O)c(N3CC(=O)NS3(=O)=O)c(F)c2CC1
- half-life [6]: 126 min
- Cmax [7]: 17800 ng/mL
- fraction unbound [8]: 0.804
- Vd [11]: 0.26 L/kg
- LBF [12]: 15%
- bioavailability [14]: 19%
- AUC(0-t) [15]: 1940 ng·h/mL
- LBF [16]: 12.7%
- fraction unbound [17]: 0.815
- Kd [37]: 8.7 nM
- Cmax [18]: 402 ng/mL
- Cmax [19]: 368 ng/mL
- bioavailability [22]: 140%
- half-life [3]: 142 min
- Vd [23]: 0.4 L/kg
- half-life [38]: 142 min
- inhibition in vivo at 30 mg/kg (MC-38): 89%
- AUC(0-t) [24]: 1430 ng·h/mL
- bioavailability [25]: 19%
- IC50 [26]: 3.09 nM
- Activity [39]: Non-Toxic
- half-life [27]: 78.6 min
- AUC(0-t) [4]: 20900 ng·h/mL
- IC50 ([1]; Mus musculus, B16-F10): 212 nM
- IC50 [2]: 9.3 nM
- LBF [31]: 14.1%
- bioavailability [32]: 93%
- Vd [33]: 0.35 L/kg
- fraction unbound [34]: 0.884
- AUC(0-t) [36]: 69200 ng·h/mL
- Cmax [5]: 4750 ng/mL

SMILES: CC1Cc2c(cc(O)c(N3CC(=O)NS3(=O)=O)c2F)CCN1 (stereo in doubt; 10a)
- IC50 ([1]; Mus musculus, B16-F10): 276 nM
- IC50 [2]: 5 nM

SMILES: CC1Cc2c(cc(O)c(N3CC(=O)NS3(=O)=O)c2F)CCN1C (racemic)
- IC50 ([1]; Mus musculus, B16-F10): 669 nM
- IC50 [2]: 17.4 nM

SMILES: CN1CCc2cc(O)c(N3CC(=O)NS3(=O)=O)c(F)c2CC1
- fraction unbound [8]: 0.998
- half-life [13]: 54 min
- fraction unbound [17]: 0.874
- Papp A→B [20]: < 0.48 ×10⁻⁶ cm/s
- Cmax [21]: 3200 ng/mL
- half-life [3]: 133 min
- AUC(0-t) [4]: 7980 ng·h/mL
- IC50 ([1]; Mus musculus, B16-F10): 461 nM
- IC50 [2]: 4.5 nM
- fraction unbound [34]: 0.852
- AUC(0-t) [35]: 1490 ng·h/mL
- Cmax [5]: 2290 ng/mL

SMILES: O=C1CN(c2c(O)cc3c(c2F)CCN(CCCC2CC2)CC3)S(=O)(=O)N1
- half-life [3]: 273 min
- AUC(0-t) [4]: 3480 ng·h/mL
- IC50 ([1]; Mus musculus, B16-F10): 247 nM
- IC50 [2]: 4.5 nM
- Cmax [5]: 621 ng/mL

SMILES: CC(C)N1CCc2cc(O)c(N3CC(=O)NS3(=O)=O)c(F)c2CC1
- IC50 ([1]; Mus musculus, B16-F10): 378 nM
- IC50 [2]: 9.2 nM

SMILES: CCC1Cc2c(cc(O)c(N3CC(=O)NS3(=O)=O)c2F)CCN1 (racemic)
- IC50 ([1]; Mus musculus, B16-F10): 425 nM
- IC50 [2]: 9.73 nM

SMILES: CC1Cc2c(cc(O)c(N3CC(=O)NS3(=O)=O)c2F)CCN1 (stereo in doubt; 10b)
- IC50 ([1]; b16-f10): 455 nM
- IC50 [2]: 17.4 nM

SMILES: O=C1CN(c2c(O)cc3c(c2F)CCN(CC2CC2)CC3)S(=O)(=O)N1
- fraction unbound [8]: 0.638
- solubility kinetic [9]: 202 µM (≈ 74.6 µg/mL)
- Papp A→B [20]: 0.28 ×10⁻⁶ cm/s
- half-life [3]: 260 min
- AUC(0-t) [4]: 5140 ng·h/mL
- IC50 ([1]; Mus musculus, B16-F10): 399 nM
- Papp B→A [29]: 0.18 ×10⁻⁶ cm/s
- IC50 [2]: 6.04 nM
- fraction unbound [34]: 0.801
- Cmax [5]: 899 ng/mL
